Here are results for 20 compounds from patent US8486931B2, “Substituted oxindole compounds” (Abbott GmbH & Co. KG, priority 2007, dated 2013).

pKi: −log10 of the molar value. Where a name gives a salt, the structure may show the parent alone.

In the test the target is T1, human vasopressin V1b receptor (Homo sapiens, UniProt P47901).
T1 construct: expressed in transfected cells; host or cells: CHO-K1 (cell line hV1b-3H2_CHO), membrane preparation
T1 sequence (P47901 1-424): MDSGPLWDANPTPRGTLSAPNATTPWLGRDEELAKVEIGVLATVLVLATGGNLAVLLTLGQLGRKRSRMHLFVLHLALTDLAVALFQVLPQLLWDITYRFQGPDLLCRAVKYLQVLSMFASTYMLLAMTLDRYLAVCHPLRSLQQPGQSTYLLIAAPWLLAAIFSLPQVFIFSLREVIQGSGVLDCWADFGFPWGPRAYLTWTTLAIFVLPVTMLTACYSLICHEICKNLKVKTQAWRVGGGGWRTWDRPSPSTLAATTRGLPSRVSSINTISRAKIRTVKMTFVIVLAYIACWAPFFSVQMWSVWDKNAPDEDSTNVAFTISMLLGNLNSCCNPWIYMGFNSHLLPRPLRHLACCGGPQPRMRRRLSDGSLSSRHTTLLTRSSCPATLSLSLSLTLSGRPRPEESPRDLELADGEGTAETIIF
The test can be described thus: Vasopressin V1b receptor binding assay. As to conditions: membranes from CHO-K1 cells with stably expressed human V1b receptors, 1.5 nM 3H-AVP displacement; with more than one stereogenic center: the diastereomer with stronger affinity. On the procedure:
Such compounds can be investigated in suitable assays which establish the affinity to a receptor, with the affinity constant Ki represening a measure of the potency of the compounds and a smaller value representing a larger potency. The compounds of the invention were tested in the following receptor binding assay for their affinity for the V1 b receptor.
Vasopressin V1 b Receptor Binding Assay:
The test substances were dissolved in a concentration of 10^−2 M in DMSO (dimethyl sulfoxide) and further diluted to 5×10^−4 M to 5×10^−9 M in DMSO. This series of DMSO predilutions was diluted 1:10 with assay buffer. The substance concentration was again diluted 1:5 in the assay mixture (2% DMSO in the mixture).
The membrane pellet was again homogenized and centrifuged as described and then taken up in 50 mM Tris-HCl, pH 7.4, homogenized and stored in aliquots frozen in liquid nitrogen at −190° C.
The incubation buffer was: 50 mM Tris, 10 mM MgCl2, 0.1% BSA, pH 7.4.
The nonspecific binding was determined with 1 μM AVP (Bachem #H1780). All determinations were carried out as triplicate determinations. After incubation (60 minutes at room temperature), the free radioligand was removed by vacuum filtration (Skatron cell harvester 7000) through Whatman GF/B glass fiber filter mats, and the filters were transferred into scintillation vials. The liquid scintillation measurement took place in a Tricarb model 2000 or 2200CA instrument (Packard). Conversion of the measured cpm into dpm was carried out with the aid of a standard quench series.
The binding parameters were calculated by nonlinear regression in SAS.
The above assay was used to measure the affinities of the compounds of the invention for the human vasopressin V1 b receptor and to determine with affinity constants (Ki).
The compound `CCOc1nc(Cl)ccc1C1(N2CCCN(c3ccncc3)CC2)C(=O)N(S(=O)(=O)c2ccc(OC)cn2)c2ccc(C#N)cc21` (racemic) [Example 168, (±)-5-Cyano-3-(6-chloro-2-ethoxy-pyridin-3-yl)-1-(5-methoxy-pyridine-2-sulfonyl)-3-(4-pyridin-4-yl-[1,4]diazepan-1-yl)-2,3-dihydro-1H-indol-2-one] gave a pKi of 7.30 to 8.00.

For `O=C1N(S(=O)(=O)c2cccc3cccnc23)c2ccc(Cl)cc2C1(c1ccccn1)N1CCN(c2ccncc2)CC1` (racemic) [Example 8, (±)-5-Chloro-3-pyridin-2-yl-3-(4-pyridin-4-ylpiperazin-1-yl)-1-(quinoline-8-sulfonyl)-1,3-dihydroindol-2-one], the negative-log Ki (pKi) is 7.30 to 8.00.

For the compound `CCOc1nc(Cl)ccc1C1(N2CCCN(c3ccnc(C)c3)CC2)C(=O)N(S(=O)(=O)c2ccc(OC)cn2)c2ccc(C#N)cc21` (racemic) [Example 177, (±)-5-Cyano-3-(6-chloro-2-ethoxy-pyridin-3-yl)-1-(5-methoxy-pyridine-2-sulfonyl)-3-[4-(2-methyl-pyridin-4-yl)-[1,4]diazepan-1-yl]-2,3-dihydro-1H-indol-2-one], the pKi is above 8.00.

Compound `CCOc1nc(Cl)ccc1C1(N2CCN(c3ccncc3)CC2)C(=O)N(S(=O)(=O)c2ccc(OC)cc2OC)c2ccc(C#N)cc21` (racemic) [Example 29, (±)-5-Cyano-3-(6-chloro-2-ethoxypyridin-3-yl)-1-(2,4-dimethoxybenzenesulfonyl)-3-(4-pyridin-4-ylpiperazin-1-yl)-2,3-dihydro-1H-indol-2-one] gave a pKi of 7.30 to 8.00.

Take `CCOc1ccc(OC)cc1C1(N2CCN(C3CCNCC3)CC2)C(=O)N(S(=O)(=O)c2ccc(OC)cn2)c2ccc(C#N)cc21` (racemic) [Example 172, (±)-5-Cyano-3-(2-ethoxy-5-methoxy-phenyl)-1-(5-methoxy-pyridine-2-sulfonyl)-3-(4-piperidin-4-yl-piperazin-1-yl)-2,3-dihydro-1H-indol-2-one]: the pKi is above 8.00.

For `CCOc1ccc(OC)cc1C1(N2CCC(N3CCNCC3)CC2)C(=O)N(S(=O)(=O)c2ccc(OC)cn2)c2ccc(C#N)cc21` (single isomer, unassigned; (+)) [Example 156, (+)-5-Cyano-3-(2-ethoxy-5-methoxy-phenyl)-1-(5-methoxy-pyridine-2-sulfonyl)-3-(4-piperazin-1-yl-piperidin-1-yl)-2,3-dihydro-1H-indol-2-one], the pKi is 7.30 to 8.00.

`CCOc1ccc(OC)cc1C1(N2CCN(c3ccnc(C)c3)CC2)C(=O)N(S(=O)(=O)c2ccc(OC)c3cccnc23)c2ccc(C#N)cc21` (racemic) [Example 33, (±)-5-Cyano-3-(2-ethoxy-5-methoxyphenyl)-1-(5-methoxyquinoline-8-sulfonyl)-3-[4-(2-methylpyridin-4-yl)piperazin-1-yl]-2,3-dihydro-1H-indol-2-one] showed a pKi above 8.00.

For `CCOc1ccc(OC)cc1C1(N2CCN(C3CCNCC3)CC2)C(=O)N(S(=O)(=O)c2ccc(OC)cn2)c2ccc(C#N)cc21` (single isomer, unassigned; (+)) [Example 140, (+)-5-Cyano-3-(2-ethoxy-5-methoxy-phenyl)-1-(5-methoxy-pyridine-2-sulfonyl)-3-(4-piperidin-4-yl-piperazin-1-yl)-2,3-dihydro-1H-indol-2-one], the pKi is above 8.00.

`CCOc1cc(F)ccc1C1(N2CCN(c3ccncc3)CC2)C(=O)N(S(=O)(=O)c2ccc(OC)c3cccnc23)c2ccc(C#N)cc21` (racemic) [Example 31, (±)-5-Cyano-3-(2-ethoxy-4-fluorophenyl)-1-(5-methoxyquinoline-8-sulfonyl)-3-(4-pyridin-4-ylpiperazin-1-yl)-2,3-dihydro-1H-indol-2-one] gave a pKi of 7.30 to 8.00.

`CCOc1ccc(OC)cc1C1(N2CCC(N3CCNCC3)CC2)C(=O)N(S(=O)(=O)c2ccc(OC)c3cccnc23)c2ccc(C#N)cc21` (racemic) [Example 87, (±)-5-Cyano-3-(2-ethoxy-5-methoxyphenyl)-1-(5-methoxyquinoline-8-sulfonyl)-3-(4-piperazin-1-ylpiperidin-1-yl)-2,3-dihydro-1H-indol-2-one hydrochloride] showed a pKi above 8.00.

Regarding `CCOc1ccc(OC)cc1C1(N2CCCN(c3ccnc(C)c3)CC2)C(=O)N(S(=O)(=O)c2cccc3cccnc23)c2ccc(C#N)cc21` (racemic) [Example 62, (±)-5-Cyano-3-(2-ethoxy-5-methoxyphenyl)-3-[4-(2-methylpyridin-4-yl)-[1,4]diazepan-1-yl]-1-(quinoline-8-sulfonyl)-2,3-dihydro-1H-indol-2-one], the pKi is above 8.00.

Take `CCOc1ccc(OC)cc1C1(N2CCCN(c3ccnc(C)c3)CC2)C(=O)N(S(=O)(=O)c2ccc(OC)cn2)c2ccc(C#N)cc21` (racemic) [Example 65, (±)-5-Cyano-3-(2-ethoxy-5-methoxyphenyl)-1-(5-methoxypyridine-2-sulfonyl)-3-[4-(2-methylpyridin-4-yl)-[1,4]diazepan-1-yl]-2,3-dihydro-1H-indol-2-one]: the pKi is above 8.00.

Compound `CCOc1cc(F)ccc1C1(N2CCN(c3ccncc3)CC2)C(=O)N(S(=O)(=O)c2ccc(OC)cn2)c2ccc(C#N)cc21` (racemic) [Example 32, (±)-5-Cyano-3-(2-ethoxy-4-fluorophenyl)-1-(5-methoxypyridine-2-sulfonyl)-3-(4-pyridin-4-ylpiperazin-1-yl)-2,3-dihydro-1H-indol-2-one] showed a pKi above 8.00.

`COc1ccc(OC(C)C)c(C2(N3CCN(c4ccncc4)CC3)C(=O)N(S(=O)(=O)c3ccc(C)cn3)c3ccc(C#N)cc32)c1` (racemic) [Example 21, (±)-5-Cyano-3-(2-isopropoxy-5-methoxyphenyl)-1-(5-methylpyridine-2-sulfonyl)-3-(4-pyridin-4-ylpiperazin-1-yl)-2,3-dihydro-1H-indol-2-one] had a pKi of 7.30 to 8.00.

In turn, `CCOc1ccc(OC)cc1C1(N2CCN(c3ccnc(C(C)C)c3)CC2)C(=O)N(S(=O)(=O)c2ccc(OC)cn2)c2ccc(C#N)cc21` (single isomer, unassigned; (+)) [Example 143, (+)-5-Cyano-3-(2-ethoxy-5-methoxy-phenyl)-3-[4-(2-isopropyl-pyridin-4-yl)-piperazin-1-yl]-1-(5-methoxy-pyridine-2-sulfonyl)-2,3-dihydro-1H-indol-2-one] showed a pKi above 8.00.

The compound `CCOc1ccc(OC)cc1C1(N2CCN(C3CCN(C)CC3)CC2)C(=O)N(S(=O)(=O)c2ccc(OC)cn2)c2ccc(C#N)cc21` (single isomer, unassigned; (+)) [Example 141, (+)-5-Cyano-3-(2-ethoxy-5-methoxy-phenyl)-1-(5-methoxy-pyridine-2-sulfonyl)-3-[4-(1-methyl-piperidin-4-yl)-piperazin-1-yl]-2,3-dihydro-1H-indol-2-one] gave a pKi of 7.30 to 8.00.

Compound `CCOc1ccc(C)cc1C1(N2CCN(c3ccncc3)CC2)C(=O)N(S(=O)(=O)c2ccc(OC)cn2)c2ccc(C#N)cc21` (racemic) [Example 169, (±)-5-Cyano-3-(2-ethoxy-5-methyl-phenyl)-1-(5-methoxy-pyridine-2-sulfonyl)-3-(4-pyridin-4-yl-piperazin-1-yl)-2,3-dihydro-1H-indol-2-one] had a pKi above 8.00.

For `CCOc1cc(F)ccc1C1(N2CCN(c3ccnc(C)c3)CC2)C(=O)N(S(=O)(=O)c2ccc(OC)cn2)c2ccc(C#N)cc21` (racemic) [Example 144, (±)-5-Cyano-3-(2-ethoxy-4-fluoro-phenyl)-1-(5-methoxy-pyridine-2-sulfonyl)-3-[4-(2-methyl-pyridin-4-yl)-piperazin-1-yl]-2,3-dihydro-1H-indol-2-one], the pKi is above 8.00.

On to `CCOc1ccccc1C1(N2CCN(c3ccncc3C)CC2)C(=O)N(S(=O)(=O)c2cccc3cccnc23)c2ccc(C#N)cc21` (racemic) [Example 15, (±)-5-Cyano-3-(2-ethoxyphenyl)-3-[4-(3-methylpyridin-4-yl)-piperazin-1-yl]-1-(quinoline-8-sulfonyl)-2,3-dihydro-1H-indol-2-one], for which the pKi was 7.30 to 8.00.

As for `CCOc1nc(Cl)ccc1C1(N2CC3CN(c4ccncc4)CC3C2)C(=O)N(S(=O)(=O)c2ccc(OC)cn2)c2ccc(C#N)cc21` (racemic) [Example 148, (±)-5-Cyano-3-(6-chloro-2-ethoxy-pyridin-3-yl)-1-(5-methoxy-pyridine-2-sulfonyl)-3-(5-pyridin-4-yl-hexahydro-pyrrolo[3,4-c]pyrrol-2-yl)-2,3-dihydro-1H-indol-2-one], the pKi was 7.30 to 8.00.

For orientation: pKi means −log10 of the Ki, conventionally taken in molar units.
